Data set [1] concerns the target T1, PRC2 containing wt EZH2 (Homo sapiens, UniProt Q15910).
T1 construct: made in house
Nature of the data set: EZH2 pep BSA Brij 4.0 LowE (IC50): 3H-SAM incorporation into biotinylated H3 peptide. The data set is classed as biochemical. The note with it: read-out: EZH2 pep BSA Brij 4.0 LowE (IC50); 20 pM PRC2 wt EZH2, 0.9 μM 3H-SAM, biotinylated H3 peptide substrate, 2 μM H3K27me3 activating peptide. Summed up:
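PRC2 (wt EZH2, 20 pM) pre-incubated 120 min with compound, 0.9 μM 3H-SAM and 2 μM H3K27me3 activating peptide in pH 8.5 Tris/DTT/Brij-35/0.1% BSA, 0.8% DMSO. Biotinylated H3K27me1 peptide added (2 μM stock), 5 h at room temperature, EDTA/SAH quench, streptavidin Flashplate capture. IC50 from four-parameter fit versus full-activity and no-enzyme controls.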

A short description of data set [2]: In vitro metabolism, rat liver microsomes. In kind it is in vitro ADME. As to conditions: 10 μM compound, 0.7 mg protein/mL, read-out: intrinsic clearance. As for the experimental part: (§1) The in vitro metabolism of compound 21 was evaluated by disappearance of compound in mouse, rat, dog and human liver microsomes at 10 μM compound concentration.
(§2) Data is expressed in μL/min/mg protein.

The nature of data set [3]: Mean plasma and tumor concentration, 7-day study in SCID mice. In kind it is in vivo. The note with it: mouse, po, female SCID mice.
Data set [4] in a line: In vitro metabolism, mouse liver microsomes. In kind it is in vitro ADME. As to conditions: 10 μM compound, 0.7 mg protein/mL, read-out: intrinsic clearance. As for the experimental part:
as §1, §2
(Liver microsomes are a subcellular fraction often used to study metabolism.)

A short description of data set [5]: In vitro metabolism, human liver microsomes. As to conditions: 10 μM compound, 0.7 mg protein/mL, read-out: intrinsic clearance. The data set is classed as in vitro ADME. As for the experimental part:
as §1, §2

Each structure is given as a SMILES string. Where two headings read alike, the source gives them in different places.

T1 sequence (Q15910 whole entry): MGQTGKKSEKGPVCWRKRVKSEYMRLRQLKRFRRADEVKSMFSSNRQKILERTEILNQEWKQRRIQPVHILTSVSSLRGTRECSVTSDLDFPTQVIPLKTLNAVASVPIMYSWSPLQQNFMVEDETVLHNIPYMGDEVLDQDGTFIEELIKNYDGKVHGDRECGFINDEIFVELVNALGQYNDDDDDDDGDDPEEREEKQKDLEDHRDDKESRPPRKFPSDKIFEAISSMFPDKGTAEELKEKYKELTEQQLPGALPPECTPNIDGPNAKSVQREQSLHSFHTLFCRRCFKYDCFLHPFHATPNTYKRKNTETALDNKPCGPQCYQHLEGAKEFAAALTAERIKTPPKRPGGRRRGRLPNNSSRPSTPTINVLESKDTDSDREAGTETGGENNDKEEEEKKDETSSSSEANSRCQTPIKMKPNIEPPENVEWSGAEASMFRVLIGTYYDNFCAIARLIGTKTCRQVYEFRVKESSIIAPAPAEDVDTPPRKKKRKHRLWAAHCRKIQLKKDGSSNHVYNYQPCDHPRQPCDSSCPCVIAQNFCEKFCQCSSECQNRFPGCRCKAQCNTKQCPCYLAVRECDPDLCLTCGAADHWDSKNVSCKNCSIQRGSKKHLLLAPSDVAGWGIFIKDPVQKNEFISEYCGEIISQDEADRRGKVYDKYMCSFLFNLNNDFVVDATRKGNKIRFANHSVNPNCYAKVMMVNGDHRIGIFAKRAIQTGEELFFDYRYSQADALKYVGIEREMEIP
T1 sequence (O75530 whole entry partner): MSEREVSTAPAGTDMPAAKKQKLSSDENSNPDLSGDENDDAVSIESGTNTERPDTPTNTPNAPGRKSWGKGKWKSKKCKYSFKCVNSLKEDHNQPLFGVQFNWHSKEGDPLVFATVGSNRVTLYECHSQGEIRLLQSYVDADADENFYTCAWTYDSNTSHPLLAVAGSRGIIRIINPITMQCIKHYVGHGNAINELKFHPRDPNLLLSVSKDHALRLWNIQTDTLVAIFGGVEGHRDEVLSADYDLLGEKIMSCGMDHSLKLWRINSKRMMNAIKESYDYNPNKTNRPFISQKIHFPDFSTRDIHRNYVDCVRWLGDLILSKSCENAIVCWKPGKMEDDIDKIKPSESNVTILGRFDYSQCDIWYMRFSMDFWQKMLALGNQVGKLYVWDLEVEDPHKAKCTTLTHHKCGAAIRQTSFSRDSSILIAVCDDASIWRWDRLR
T1 sequence (Q15022 whole entry partner): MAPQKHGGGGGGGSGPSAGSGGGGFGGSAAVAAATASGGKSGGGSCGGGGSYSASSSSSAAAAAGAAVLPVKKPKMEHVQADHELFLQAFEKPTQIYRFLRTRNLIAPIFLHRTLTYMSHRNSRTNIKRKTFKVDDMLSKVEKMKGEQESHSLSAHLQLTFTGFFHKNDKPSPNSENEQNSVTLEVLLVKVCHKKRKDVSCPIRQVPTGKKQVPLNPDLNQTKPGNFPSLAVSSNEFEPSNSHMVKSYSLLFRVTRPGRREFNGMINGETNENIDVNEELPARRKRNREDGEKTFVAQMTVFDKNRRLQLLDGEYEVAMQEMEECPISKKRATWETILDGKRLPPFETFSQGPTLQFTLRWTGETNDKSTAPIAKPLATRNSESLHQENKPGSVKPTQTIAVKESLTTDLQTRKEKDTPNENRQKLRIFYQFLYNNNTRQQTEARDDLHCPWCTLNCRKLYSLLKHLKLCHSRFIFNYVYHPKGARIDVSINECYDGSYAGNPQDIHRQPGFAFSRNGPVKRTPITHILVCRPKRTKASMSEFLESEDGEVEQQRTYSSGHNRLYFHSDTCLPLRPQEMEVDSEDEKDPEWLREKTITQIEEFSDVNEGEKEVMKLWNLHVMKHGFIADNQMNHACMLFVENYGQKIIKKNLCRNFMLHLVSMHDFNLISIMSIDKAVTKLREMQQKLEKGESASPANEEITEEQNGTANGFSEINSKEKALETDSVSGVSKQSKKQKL
T1 sequence (Q09028 whole entry partner): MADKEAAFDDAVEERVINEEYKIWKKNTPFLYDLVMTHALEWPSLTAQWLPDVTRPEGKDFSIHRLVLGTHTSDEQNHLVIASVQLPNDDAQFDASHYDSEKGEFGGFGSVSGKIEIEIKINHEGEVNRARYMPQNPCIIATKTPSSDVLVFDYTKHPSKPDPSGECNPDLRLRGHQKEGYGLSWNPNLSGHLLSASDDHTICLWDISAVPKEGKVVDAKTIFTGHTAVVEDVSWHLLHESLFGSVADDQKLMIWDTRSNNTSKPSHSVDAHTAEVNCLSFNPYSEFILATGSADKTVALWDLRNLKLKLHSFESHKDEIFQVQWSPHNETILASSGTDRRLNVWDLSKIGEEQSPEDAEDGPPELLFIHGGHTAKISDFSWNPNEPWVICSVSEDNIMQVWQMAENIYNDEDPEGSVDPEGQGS
T1 sequence (Q6ZN18 whole entry partner): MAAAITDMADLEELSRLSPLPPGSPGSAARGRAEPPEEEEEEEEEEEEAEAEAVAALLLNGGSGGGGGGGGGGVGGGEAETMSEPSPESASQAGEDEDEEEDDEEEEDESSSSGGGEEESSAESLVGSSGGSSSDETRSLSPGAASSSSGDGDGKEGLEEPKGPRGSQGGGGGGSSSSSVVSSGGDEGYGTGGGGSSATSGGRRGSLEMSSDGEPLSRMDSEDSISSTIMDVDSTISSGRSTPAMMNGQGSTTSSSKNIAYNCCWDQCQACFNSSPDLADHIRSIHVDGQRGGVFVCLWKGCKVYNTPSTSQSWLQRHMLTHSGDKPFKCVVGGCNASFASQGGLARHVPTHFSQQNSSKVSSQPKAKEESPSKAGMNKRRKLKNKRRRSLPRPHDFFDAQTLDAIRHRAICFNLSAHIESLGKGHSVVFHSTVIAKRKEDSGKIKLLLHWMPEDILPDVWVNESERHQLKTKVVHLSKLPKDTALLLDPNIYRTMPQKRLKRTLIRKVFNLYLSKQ

A word on the IC50: it is the concentration that gives 50% inhibition. With `COc1cc(C)[nH]c(=O)c1CNC(=O)c1c(C)n(C(C)C2CCN(C)C(C(F)(F)F)C2)c2ccccc12` (single isomer, unassigned) [Compound 21, N-((4-methoxy-6-methyl-2-oxo-1,2-dihydropyridin-3-yl)methyl)-2-methyl-1-(1-(1-methyl-2-(trifluoromethyl)piperidin-4-yl)ethyl)-1H-indole-3-carboxamide], in data set [1], the IC50 was less than 100 nM. The microsomal CLint at 10 μM in data set [2] stood at 35 µL/min/mg; in data set [4] it was 55 µL/min/mg; in data set [5], 39 µL/min/mg. The concentration at 7 day came to 280 ng/mL in data set [3] (plasma, 100 mg/kg P.O. BID, read-out: Mean Plasma Conc); 1600 ng/mL in data set [3] (plasma, 200 mg/kg P.O. BID, read-out: Mean Plasma Conc); 451 ng/g in data set [3] (tumor, 100 mg/kg P.O. BID, read-out: Mean Tumor Conc); 693 ng/g in data set [3] (tumor, 200 mg/kg P.O. BID, read-out: Mean Tumor Conc).
